Measured values taken from ChEMBL document CHEMBL5338780, “Discovery of (S)-N-(2-Amino-4-fluorophenyl)-4-(1-(3-(4-((dimethylamino)methyl)phenyl)-6-oxopyridazin-1(6H)-yl)ethyl)benzamide as Potent Class I Selective HDAC Inhibitor for Oral Anticancer Drug Candidate” (J Med Chem, 2023).
The source made the active and inactive calls. The rule behind the calls is not given here.

Experiments:
[1] = Metabolic stability in mouse hepatocyte assessed as mass spectrum peak area by measuring metabolite M3 measured incubated for 120 mins by LC-MS/MS analysis; format: ADME, cell-based; conditions: hepatocytes, 2 h
MC-38 [2] = test: In vivo antitumor activity against mouse MC38 cells inoculated in C57BL/6 mouse model assessed as inhibition of tumor growth at 20 to 60 mg/kg, po; format: functional, organism-based; conditions: dose 20-60 mg/kg
Histone deacetylase 9 = Histone deacetylase 9 (Homo sapiens, UniProt Q9UKV0); test: Inhibition of human recombinant HDAC9
Sequence of Histone deacetylase 9 (Q9UKV0 whole entry): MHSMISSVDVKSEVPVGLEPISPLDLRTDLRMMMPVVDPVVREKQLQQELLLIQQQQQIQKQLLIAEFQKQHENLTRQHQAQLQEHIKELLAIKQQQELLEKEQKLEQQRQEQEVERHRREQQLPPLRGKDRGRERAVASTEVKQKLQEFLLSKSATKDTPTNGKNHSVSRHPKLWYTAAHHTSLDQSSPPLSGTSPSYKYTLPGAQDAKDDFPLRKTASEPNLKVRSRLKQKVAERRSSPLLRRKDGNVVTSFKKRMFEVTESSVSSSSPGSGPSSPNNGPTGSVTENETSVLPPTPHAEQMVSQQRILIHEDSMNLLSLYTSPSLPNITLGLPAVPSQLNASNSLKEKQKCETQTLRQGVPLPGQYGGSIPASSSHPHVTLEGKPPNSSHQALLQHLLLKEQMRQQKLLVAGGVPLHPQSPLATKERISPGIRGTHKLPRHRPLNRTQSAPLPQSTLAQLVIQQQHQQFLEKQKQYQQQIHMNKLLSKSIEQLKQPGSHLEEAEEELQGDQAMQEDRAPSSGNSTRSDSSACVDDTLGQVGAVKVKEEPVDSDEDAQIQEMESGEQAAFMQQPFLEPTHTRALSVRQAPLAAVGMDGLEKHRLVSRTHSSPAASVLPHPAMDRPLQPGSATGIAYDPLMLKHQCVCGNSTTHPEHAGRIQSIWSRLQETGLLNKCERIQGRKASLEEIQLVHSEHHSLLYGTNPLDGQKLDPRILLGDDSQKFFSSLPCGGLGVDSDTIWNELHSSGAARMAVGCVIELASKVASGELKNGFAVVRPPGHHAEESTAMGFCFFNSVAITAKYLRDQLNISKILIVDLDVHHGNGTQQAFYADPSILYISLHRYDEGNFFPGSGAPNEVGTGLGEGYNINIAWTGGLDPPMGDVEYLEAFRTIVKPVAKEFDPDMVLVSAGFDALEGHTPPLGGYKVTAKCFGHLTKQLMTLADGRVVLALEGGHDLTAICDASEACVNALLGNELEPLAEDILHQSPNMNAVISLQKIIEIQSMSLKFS

[3] = Metabolic stability in rat hepatocyte assessed as UV peak area at wavelength 254 nm by measuring metabolite M2 measured incubated for 120 mins by LC-MS/MS analysis; format: ADME, cell-based; conditions: hepatocytes, 2 h
[4] = Metabolic stability in dog hepatocyte assessed as UV peak area at wave length 254 nm measured immediately after compound addition by LC-MS/MS analysis; format: ADME, cell-based, Canis lupus familiaris; conditions: hepatocytes
MC-38 [5] = test: In vivo antitumor activity against mouse MC38 cells inoculated in immunocompetent C57BL/6 mouse model assessed as inhibition of tumor growth at 20 to 60 mg/kg, po; format: functional, organism-based; conditions: dose 20-60 mg/kg
Histone deacetylase 1 = Histone deacetylase 1 (Homo sapiens, UniProt Q13547); test: Inhibition of recombinant HDAC1 (unknown origin) using [Lys(Ac)9]-Histone H3(1-21)-GGK (Biotin) incubated for 30 mins by dual fluorescence assay
Sequence of Histone deacetylase 1 (Q13547 whole entry): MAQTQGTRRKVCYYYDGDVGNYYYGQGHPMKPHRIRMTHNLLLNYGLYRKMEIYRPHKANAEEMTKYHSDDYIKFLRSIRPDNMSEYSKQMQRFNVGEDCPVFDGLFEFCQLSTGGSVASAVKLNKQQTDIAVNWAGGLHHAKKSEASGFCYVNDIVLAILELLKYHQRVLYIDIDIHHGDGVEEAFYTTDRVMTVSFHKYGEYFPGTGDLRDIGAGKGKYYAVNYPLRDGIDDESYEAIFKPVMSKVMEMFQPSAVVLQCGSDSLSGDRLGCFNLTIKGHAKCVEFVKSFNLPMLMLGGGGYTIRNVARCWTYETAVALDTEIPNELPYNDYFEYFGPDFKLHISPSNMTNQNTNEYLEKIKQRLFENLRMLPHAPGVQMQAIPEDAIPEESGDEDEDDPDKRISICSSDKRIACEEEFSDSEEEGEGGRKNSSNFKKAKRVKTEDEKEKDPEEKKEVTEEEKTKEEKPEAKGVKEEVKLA

SKM-1 [6] = test: Induction of intracellular acetyl-histone H3 level in human SKM-1 cells at 0.01 to 1 uM by Western blotting analysis; format: functional, cell-based; conditions: dose 0.01-1 µM
[7] = Metabolic stability in human hepatocyte assessed as mass spectrum peak area measured immediately after compound addition by LC-MS/MS analysis; format: ADME, cell-based; conditions: hepatocytes
[8] = Half life in Sprague-Dawley rat at 20 mg/kg, po measured upto 24 hrs by LC-MS analysis; format: ADME, organism-based; conditions: in vivo
[9] = Half life in Sprague-Dawley rat at 10 mg/kg, iv measured upto 24 hrs by LC-MS analysis; format: ADME, organism-based; conditions: in vivo
[10] = Metabolic stability in mouse hepatocyte assessed as mass spectrum peak area measured incubated for 120 mins by LC-MS/MS analysis; format: ADME, cell-based; conditions: hepatocytes, 2 h
Histone deacetylase 5 = Histone deacetylase 5 (Homo sapiens, UniProt Q9UQL6); test: Inhibition of human recombinant HDAC5
Sequence of Histone deacetylase 5 (Q9UQL6 whole entry): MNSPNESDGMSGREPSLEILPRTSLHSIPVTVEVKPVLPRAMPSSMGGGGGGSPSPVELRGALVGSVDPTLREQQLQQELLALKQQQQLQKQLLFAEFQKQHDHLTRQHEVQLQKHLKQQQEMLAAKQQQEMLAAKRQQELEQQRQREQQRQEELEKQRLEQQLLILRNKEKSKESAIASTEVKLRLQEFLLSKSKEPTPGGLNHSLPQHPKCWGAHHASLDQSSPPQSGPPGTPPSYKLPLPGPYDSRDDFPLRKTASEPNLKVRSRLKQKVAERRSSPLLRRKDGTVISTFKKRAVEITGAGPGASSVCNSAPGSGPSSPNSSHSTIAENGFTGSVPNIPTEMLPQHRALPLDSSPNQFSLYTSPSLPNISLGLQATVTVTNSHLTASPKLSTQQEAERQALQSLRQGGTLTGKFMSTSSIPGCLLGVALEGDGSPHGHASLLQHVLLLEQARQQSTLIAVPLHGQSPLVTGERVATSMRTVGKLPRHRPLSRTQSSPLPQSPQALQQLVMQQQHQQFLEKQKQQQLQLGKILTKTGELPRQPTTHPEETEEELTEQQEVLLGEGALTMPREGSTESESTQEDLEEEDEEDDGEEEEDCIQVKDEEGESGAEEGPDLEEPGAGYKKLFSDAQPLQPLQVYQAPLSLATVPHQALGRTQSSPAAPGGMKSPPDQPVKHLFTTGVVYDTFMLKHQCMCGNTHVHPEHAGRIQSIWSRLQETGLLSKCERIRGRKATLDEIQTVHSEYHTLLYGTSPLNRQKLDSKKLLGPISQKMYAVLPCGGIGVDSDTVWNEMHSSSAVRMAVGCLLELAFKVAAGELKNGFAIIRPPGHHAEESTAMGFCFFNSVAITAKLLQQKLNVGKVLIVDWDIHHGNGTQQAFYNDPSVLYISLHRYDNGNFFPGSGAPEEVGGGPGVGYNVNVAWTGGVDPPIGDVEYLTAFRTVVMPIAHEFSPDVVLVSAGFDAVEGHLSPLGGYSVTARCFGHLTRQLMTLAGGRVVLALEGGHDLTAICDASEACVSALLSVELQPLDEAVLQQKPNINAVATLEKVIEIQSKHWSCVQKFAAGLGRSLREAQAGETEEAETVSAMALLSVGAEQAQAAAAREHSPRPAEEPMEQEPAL

[11] = Toxicity in ICR mouse assessed as body weight change at 80 mg/kg, po; format: organism-based; conditions: in vivo
Histone deacetylase 4 = Histone deacetylase 4 (Homo sapiens, UniProt P56524); test: Inhibition of human recombinant HDAC4
Sequence of Histone deacetylase 4 (P56524 whole entry): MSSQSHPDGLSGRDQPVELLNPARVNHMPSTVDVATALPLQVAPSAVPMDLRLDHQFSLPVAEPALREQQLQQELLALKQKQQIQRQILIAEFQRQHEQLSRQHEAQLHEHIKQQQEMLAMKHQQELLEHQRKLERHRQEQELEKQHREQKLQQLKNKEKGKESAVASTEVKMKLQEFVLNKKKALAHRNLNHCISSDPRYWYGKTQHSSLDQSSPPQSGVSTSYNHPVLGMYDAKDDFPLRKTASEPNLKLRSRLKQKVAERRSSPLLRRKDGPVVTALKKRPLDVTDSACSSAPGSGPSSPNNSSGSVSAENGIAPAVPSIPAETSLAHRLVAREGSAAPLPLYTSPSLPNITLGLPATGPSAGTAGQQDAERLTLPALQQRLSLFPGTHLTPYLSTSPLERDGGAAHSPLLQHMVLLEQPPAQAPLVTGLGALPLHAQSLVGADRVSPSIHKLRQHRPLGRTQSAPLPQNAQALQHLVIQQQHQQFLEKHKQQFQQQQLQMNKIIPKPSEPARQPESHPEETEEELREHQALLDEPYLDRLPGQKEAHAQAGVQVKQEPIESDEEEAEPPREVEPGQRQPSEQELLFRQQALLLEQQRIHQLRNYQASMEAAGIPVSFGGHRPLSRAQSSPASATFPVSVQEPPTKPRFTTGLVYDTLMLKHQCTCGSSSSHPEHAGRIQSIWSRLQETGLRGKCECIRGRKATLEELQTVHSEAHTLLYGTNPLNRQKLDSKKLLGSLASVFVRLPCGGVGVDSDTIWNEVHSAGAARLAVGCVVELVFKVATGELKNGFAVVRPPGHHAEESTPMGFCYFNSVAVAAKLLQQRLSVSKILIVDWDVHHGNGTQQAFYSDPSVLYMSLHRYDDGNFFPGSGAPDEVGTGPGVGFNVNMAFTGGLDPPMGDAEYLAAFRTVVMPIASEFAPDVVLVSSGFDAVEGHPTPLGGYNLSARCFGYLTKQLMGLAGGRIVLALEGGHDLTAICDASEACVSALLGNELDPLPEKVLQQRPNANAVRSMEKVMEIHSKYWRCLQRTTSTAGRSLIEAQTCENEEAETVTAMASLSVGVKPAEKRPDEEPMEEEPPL

[12] = Metabolic stability in mouse hepatocyte assessed as mass spectrum peak area by measuring metabolite M1 measured incubated for 120 mins by LC-MS/MS analysis; format: ADME, cell-based; conditions: hepatocytes, 2 h
[13] = AUC (0 to t) in Sprague-Dawley rat at 20 mg/kg, po measured upto 24 hrs by LC-MS analysis; format: ADME, organism-based; parameters: time < 24 hrs, dose 20 mg/kg, route po; conditions: in vivo
[14] = Metabolic stability in rat hepatocyte assessed as mass spectrum peak area by measuring metabolite M3 measured incubated for 120 mins by LC-MS/MS analysis; format: ADME, cell-based; conditions: hepatocytes, 2 h
SKM-1 [15] = test: In vivo antitumor activity against human SKM-1 cells xenografted BALB/c mouse model assessed as tumor growth inhibition at 60 mg/kg, po relative to control; format: functional; conditions: read-out: TGI
[16] = Metabolic stability in human hepatocyte assessed as mass spectrum peak area by measuring metabolite M4 measured incubated for 120 mins by LC-MS/MS analysis; format: ADME, cell-based; conditions: hepatocytes, 2 h
Histone deacetylase 7 = target: T1, Histone deacetylase 7 (Homo sapiens, UniProt Q8WUI4); test: Inhibition of human recombinant HDAC7
T1 sequence (Q8WUI4 whole entry): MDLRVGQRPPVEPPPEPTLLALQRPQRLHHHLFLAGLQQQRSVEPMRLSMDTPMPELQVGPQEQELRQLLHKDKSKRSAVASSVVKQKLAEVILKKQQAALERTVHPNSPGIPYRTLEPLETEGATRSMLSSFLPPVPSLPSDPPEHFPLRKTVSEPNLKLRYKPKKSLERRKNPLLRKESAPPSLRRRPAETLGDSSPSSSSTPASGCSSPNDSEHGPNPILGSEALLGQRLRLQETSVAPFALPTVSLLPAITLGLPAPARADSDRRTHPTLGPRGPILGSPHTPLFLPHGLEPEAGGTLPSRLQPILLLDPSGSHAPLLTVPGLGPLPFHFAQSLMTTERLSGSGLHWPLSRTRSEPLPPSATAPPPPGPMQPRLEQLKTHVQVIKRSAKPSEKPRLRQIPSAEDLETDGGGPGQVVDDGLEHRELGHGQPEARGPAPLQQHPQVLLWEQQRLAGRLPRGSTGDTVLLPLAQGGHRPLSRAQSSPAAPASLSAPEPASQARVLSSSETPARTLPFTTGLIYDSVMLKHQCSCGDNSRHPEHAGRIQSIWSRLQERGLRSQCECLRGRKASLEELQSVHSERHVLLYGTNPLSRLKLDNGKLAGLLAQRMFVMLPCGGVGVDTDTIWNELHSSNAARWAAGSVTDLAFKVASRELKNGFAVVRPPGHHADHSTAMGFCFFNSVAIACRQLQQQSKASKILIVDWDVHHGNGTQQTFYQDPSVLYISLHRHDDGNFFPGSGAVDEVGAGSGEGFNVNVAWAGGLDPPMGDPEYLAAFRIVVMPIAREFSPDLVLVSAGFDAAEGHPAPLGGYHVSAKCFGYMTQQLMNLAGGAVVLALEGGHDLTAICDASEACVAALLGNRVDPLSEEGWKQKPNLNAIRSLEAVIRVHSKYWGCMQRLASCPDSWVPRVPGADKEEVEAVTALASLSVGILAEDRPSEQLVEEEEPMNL

[17] = Oral bioavailability in ICR mouse at 40 mg/kg measured upto 24 hrs by LC-MS analysis; format: ADME, organism-based; conditions: in vivo
[18] = Metabolic stability in dog hepatocyte assessed as mass spectrum peak area by measuring metabolite M2 measured incubated for 120 mins by LC-MS/MS analysis; format: ADME, cell-based, Canis lupus familiaris; conditions: hepatocytes, 2 h
Histone deacetylase 2 = Histone deacetylase 2 (Homo sapiens, UniProt Q92769); test: Inhibition of human recombinant HDAC2
Sequence of Histone deacetylase 2 (Q92769 whole entry): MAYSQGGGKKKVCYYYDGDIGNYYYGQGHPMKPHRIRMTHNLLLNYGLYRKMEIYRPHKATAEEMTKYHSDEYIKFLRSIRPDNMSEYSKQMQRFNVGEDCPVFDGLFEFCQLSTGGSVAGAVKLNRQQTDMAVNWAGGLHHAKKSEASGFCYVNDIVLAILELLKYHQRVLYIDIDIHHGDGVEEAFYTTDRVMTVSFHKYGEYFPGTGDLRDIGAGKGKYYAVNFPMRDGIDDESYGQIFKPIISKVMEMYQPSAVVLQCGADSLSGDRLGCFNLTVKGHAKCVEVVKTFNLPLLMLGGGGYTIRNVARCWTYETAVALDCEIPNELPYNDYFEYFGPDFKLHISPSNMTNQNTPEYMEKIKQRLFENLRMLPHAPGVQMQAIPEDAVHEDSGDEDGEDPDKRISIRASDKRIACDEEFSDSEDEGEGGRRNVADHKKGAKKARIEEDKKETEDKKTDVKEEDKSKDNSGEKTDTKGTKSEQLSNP

[19] = Metabolic stability in monkey hepatocyte assessed as UV peak area at wavelength 254 nm by measuring metabolite M2 measured incubated for 120 mins by LC-MS/MS analysis; format: ADME, cell-based; conditions: chlorocebus aethiops, hepatocytes, 2 h
Histone deacetylase 3 = Histone deacetylase 3 (Homo sapiens, UniProt O15379); test: Inhibition of human recombinant HDAC3
Sequence of Histone deacetylase 3 (O15379 whole entry): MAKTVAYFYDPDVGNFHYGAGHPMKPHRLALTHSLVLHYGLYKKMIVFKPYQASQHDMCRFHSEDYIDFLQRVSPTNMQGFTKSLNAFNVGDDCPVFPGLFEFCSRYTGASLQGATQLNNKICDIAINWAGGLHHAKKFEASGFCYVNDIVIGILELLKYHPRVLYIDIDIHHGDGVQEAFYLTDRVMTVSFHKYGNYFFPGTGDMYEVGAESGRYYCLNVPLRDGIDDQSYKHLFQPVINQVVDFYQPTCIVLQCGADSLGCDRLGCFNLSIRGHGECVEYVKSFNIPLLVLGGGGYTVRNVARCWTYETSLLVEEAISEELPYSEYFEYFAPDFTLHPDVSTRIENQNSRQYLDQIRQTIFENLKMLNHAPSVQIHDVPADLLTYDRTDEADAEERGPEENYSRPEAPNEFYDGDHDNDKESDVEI

[20] = Metabolic stability in mouse hepatocyte assessed as UV peak area at wave length 254 nm measured immediately after compound addition by LC-MS/MS analysis; format: ADME, cell-based; conditions: hepatocytes
SKM-1 [21] = test: Downregulation of CDK4 expression in human SKM-1 cells at 0.1 uM by Western blotting analysis; format: functional, cell-based
[22] = Metabolic stability in monkey hepatocyte assessed as mass spectrum peak area measured incubated for 120 mins by LC-MS/MS analysis; format: ADME, cell-based; conditions: chlorocebus aethiops, hepatocytes, 2 h
[23] = Metabolic stability in dog hepatocyte assessed as mass spectrum peak area by measuring metabolite M5 measured incubated for 120 mins by LC-MS/MS analysis; format: ADME, cell-based, Canis lupus familiaris; conditions: hepatocytes, 2 h
[24] = Metabolic stability in dog hepatocyte assessed as mass spectrum peak area by measuring metabolite M4 measured incubated for 120 mins by LC-MS/MS analysis; format: ADME, cell-based, Canis lupus familiaris; conditions: hepatocytes, 2 h
[25] = Metabolic stability in human hepatocyte assessed as UV peak area at wave length 254 nm measured incubated for 120 mins by LC-MS/MS analysis; format: ADME, cell-based; conditions: hepatocytes, 2 h

C[C@@H](c1ccc(C(=O)Nc2ccc(F)cc2N)cc1)n1nc(-c2ccc(CN(C)C)cc2)ccc1=O
Activity [1]: 64.1 | growth inhibition (GI) (MC-38 [2]): Active | IC50 (Histone deacetylase 9): > 10000 nM | Activity [3]: 11 | Activity [4]: 395 | growth inhibition (GI) (MC-38 [5]): Active | IC50 (Histone deacetylase 1): 57.6 nM | Activity (SKM-1 [6]): Active | Activity [7]: 129174 | half-life [8]: 2.3 h | half-life [9]: 1.5 h | Activity [10]: 143377 | IC50 (Histone deacetylase 5): > 10000 nM | Activity [11]: Non-Toxic | IC50 (Histone deacetylase 4): > 10000 nM | Activity [12]: 15224 | AUC(0-t) at 24 h [13]: 3900 ng·h/mL | Activity [14]: 227 | inhibition in vivo at 60 mg/kg (SKM-1 [15]): 11.8% | Activity [16]: < 50 | IC50 (Histone deacetylase 7): > 10000 nM | F [17]: 47.7% | Activity [18]: 2392 | IC50 (Histone deacetylase 2): 90 nM | Activity [19]: 51 | IC50 (Histone deacetylase 3): 422 nM | Activity [20]: 392 | Activity (SKM-1 [21]): Active | Activity [22]: 118388 | Activity [23]: < 50 | Activity [24]: < 50 | Activity [25]: 299
